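Each compound was tested at five concentrations against cells in 96-well plates for 48 hours. Abbreviation: GI50, concentration required for 50% inhibition of growth. TGI marks complete inhibition of growth.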
Columns and labels:
Assay in all cases: NCI anticancer screen, dose series, 48 h; in the data active = GI50 below about 0.43 µM; inactive = the rest
SR leukemia = test system: SR leukemia
M14 melanoma = test system: M14 melanoma
RPMI-8226 leukemia = test system: RPMI-8226 leukemia
OVCAR-8 ovarian = test system: OVCAR-8 ovarian
CAKI-1 renal = test system: CAKI-1 renal
SNB-75 CNS = test system: SNB-75 CNS
OVCAR-4 ovarian = test system: OVCAR-4 ovarian
SK-MEL-2 melanoma = test system: SK-MEL-2 melanoma
SW-620 colon = test system: SW-620 colon
NCI-H226 lung = test system: NCI-H226 lung
M19-MEL melanoma = test system: M19-MEL melanoma
NCI-H460 lung = test system: NCI-H460 lung
ACHN renal = test system: ACHN renal
KM20L2 colon = test system: KM20L2 colon
K-562 leukemia = test system: K-562 leukemia
U251 CNS = test system: U251 CNS
OVCAR-3 ovarian = test system: OVCAR-3 ovarian
DLD-1 colon = test system: DLD-1 colon
HOP-92 NSCLC = test system: HOP-92 NSCLC
SN12C renal = test system: SN12C renal
UO-31 renal = test system: UO-31 renal
A549 NSCLC = test system: A549 NSCLC
SF-539 CNS = test system: SF-539 CNS
COLO 205 colon = test system: COLO 205 colon
SK-MEL-28 melanoma = test system: SK-MEL-28 melanoma
786-0 renal = test system: 786-0 renal
KM12 colon = test system: KM12 colon
HCT-116 colon = test system: HCT-116 colon
HOP-62 NSCLC = test system: HOP-62 NSCLC
SF-268 CNS = test system: SF-268 CNS
NCI-H522 lung = test system: NCI-H522 lung
UACC-257 melanoma = test system: UACC-257 melanoma
DMS 114 small cell lung = test system: DMS 114 small cell lung
NCI-H23 lung = test system: NCI-H23 lung
HCT-15 colon = test system: HCT-15 colon
MOLT-4 leukemia = test system: MOLT-4 leukemia
SK-MEL-5 melanoma = test system: SK-MEL-5 melanoma
DMS 273 small cell lung = test system: DMS 273 small cell lung
HCC-2998 colon = test system: HCC-2998 colon
SNB-19 CNS = test system: SNB-19 CNS
UACC-62 melanoma = test system: UACC-62 melanoma
HL-60(TB) leukemia = test system: HL-60(TB) leukemia
CCRF-CEM leukemia = test system: CCRF-CEM leukemia
LOX IMVI melanoma = test system: LOX IMVI melanoma
XF 498 CNS = test system: XF 498 CNS
TK-10 renal = test system: TK-10 renal
OVCAR-5 ovarian = test system: OVCAR-5 ovarian
MALME-3M melanoma = test system: MALME-3M melanoma
LXFL 529 NSCLC = test system: LXFL 529 NSCLC
SNB-78 CNS = test system: SNB-78 CNS
EKVX NSCLC = test system: EKVX NSCLC
IGROV1 ovarian = test system: IGROV1 ovarian
RXF 393 renal = test system: RXF 393 renal
A498 renal = test system: A498 renal
HT29 colon = test system: HT29 colon
SK-OV-3 ovarian = test system: SK-OV-3 ovarian
HOP-18 NSCLC = test system: HOP-18 NSCLC
SF-295 CNS = test system: SF-295 CNS

CC(C)OP(=O)(OC(C)C)/C(N)=N/Nc1ccc([N+](=O)[O-])cc1
> 100 µM: TGI (SR leukemia) | TGI (M14 melanoma) | TGI (RPMI-8226 leukemia) | TGI (OVCAR-8 ovarian) | TGI (CAKI-1 renal) | TGI (SNB-75 CNS) | TGI (OVCAR-4 ovarian) | TGI (SK-MEL-2 melanoma) | TGI (SW-620 colon) | TGI (NCI-H226 lung) | TGI (M19-MEL melanoma) | TGI (NCI-H460 lung) | TGI (ACHN renal) | TGI (KM20L2 colon) | TGI (K-562 leukemia) | TGI (U251 CNS) | TGI (OVCAR-3 ovarian) | TGI (DLD-1 colon) | TGI (HOP-92 NSCLC) | TGI (SN12C renal) | TGI (UO-31 renal) | TGI (A549 NSCLC) | TGI (SF-539 CNS) | TGI (COLO 205 colon) | TGI (SK-MEL-28 melanoma) | TGI (786-0 renal) | TGI (KM12 colon) | TGI (HCT-116 colon) | TGI (HOP-62 NSCLC) | TGI (SF-268 CNS) | TGI (NCI-H522 lung) | TGI (UACC-257 melanoma) | TGI (DMS 114 small cell lung) | TGI (NCI-H23 lung) | TGI (HCT-15 colon) | TGI (MOLT-4 leukemia) | TGI (SK-MEL-5 melanoma) | TGI (DMS 273 small cell lung) | TGI (HCC-2998 colon) | TGI (SNB-19 CNS) | TGI (UACC-62 melanoma) | TGI (HL-60(TB) leukemia) | TGI (CCRF-CEM leukemia) | TGI (LOX IMVI melanoma) | TGI (XF 498 CNS) | TGI (TK-10 renal) | TGI (OVCAR-5 ovarian) | TGI (MALME-3M melanoma) | TGI (LXFL 529 NSCLC) | TGI (SNB-78 CNS) | TGI (EKVX NSCLC)

O=c1ncccn1C1OC(CO)C(O)C1O (configuration not stated)
> 100 µM: TGI (M14 melanoma) | TGI (RPMI-8226 leukemia) | TGI (OVCAR-8 ovarian) | TGI (CAKI-1 renal) | TGI (SNB-75 CNS) | TGI (OVCAR-4 ovarian) | TGI (SK-MEL-2 melanoma) | TGI (SW-620 colon) | TGI (NCI-H226 lung) | TGI (M19-MEL melanoma) | TGI (NCI-H460 lung) | TGI (ACHN renal) | TGI (KM20L2 colon) | TGI (K-562 leukemia) | TGI (U251 CNS) | TGI (IGROV1 ovarian) | TGI (DLD-1 colon) | TGI (HOP-92 NSCLC) | TGI (RXF 393 renal) | TGI (SN12C renal) | TGI (UO-31 renal) | TGI (A549 NSCLC) | TGI (COLO 205 colon) | TGI (SK-MEL-28 melanoma) | TGI (786-0 renal) | TGI (KM12 colon) | TGI (HCT-116 colon) | TGI (A498 renal) | TGI (SF-268 CNS) | TGI (HT29 colon) | TGI (NCI-H522 lung) | TGI (DMS 114 small cell lung) | TGI (NCI-H23 lung) | TGI (HCT-15 colon) | TGI (DMS 273 small cell lung) | TGI (SK-OV-3 ovarian) | TGI (HCC-2998 colon) | TGI (HOP-18 NSCLC) | TGI (SNB-19 CNS) | TGI (UACC-62 melanoma) | TGI (CCRF-CEM leukemia) | TGI (LOX IMVI melanoma) | TGI (TK-10 renal) | TGI (OVCAR-5 ovarian) | TGI (MALME-3M melanoma) | TGI (LXFL 529 NSCLC) | TGI (SNB-78 CNS) | TGI (EKVX NSCLC)

COc1cccc(C=O)c1[O-].[O]=[U](=[O])([OH2+])[OH2+]
94.1 µM: TGI (RXF 393 renal)
64.9 µM: TGI (SF-539 CNS)
87.5 µM: TGI (SR leukemia)
73.2 µM: TGI (MOLT-4 leukemia)
79.8 µM: TGI (ACHN renal)
97.4 µM: TGI (TK-10 renal)
inactive: GI50 (CAKI-1 renal) > 100 µM
63.6 µM: TGI (SK-OV-3 ovarian)
81.3 µM: TGI (SNB-75 CNS)
56.2 µM: TGI (OVCAR-8 ovarian)
78.6 µM: TGI (SF-295 CNS)
59.1 µM: TGI (U251 CNS)
> 100 µM: TGI (M14 melanoma) | TGI (RPMI-8226 leukemia) | TGI (CAKI-1 renal) | TGI (OVCAR-4 ovarian) | TGI (SK-MEL-2 melanoma) | TGI (SW-620 colon) | TGI (NCI-H226 lung) | TGI (M19-MEL melanoma) | TGI (KM20L2 colon) | TGI (K-562 leukemia) | TGI (IGROV1 ovarian) | TGI (DLD-1 colon) | TGI (HOP-92 NSCLC) | TGI (SN12C renal) | TGI (UO-31 renal) | TGI (A549 NSCLC) | TGI (COLO 205 colon) | TGI (SK-MEL-28 melanoma) | TGI (KM12 colon) | TGI (HCT-116 colon) | TGI (A498 renal) | TGI (HOP-62 NSCLC) | TGI (SF-268 CNS) | TGI (HT29 colon) | TGI (NCI-H522 lung) | TGI (UACC-257 melanoma) | TGI (DMS 114 small cell lung) | TGI (NCI-H23 lung) | TGI (HCT-15 colon) | TGI (SK-MEL-5 melanoma) | TGI (DMS 273 small cell lung) | TGI (HCC-2998 colon) | TGI (CCRF-CEM leukemia) | TGI (LOX IMVI melanoma) | TGI (OVCAR-5 ovarian) | TGI (MALME-3M melanoma) | TGI (LXFL 529 NSCLC) | TGI (SNB-78 CNS) | TGI (EKVX NSCLC)
45.5 µM: TGI (SNB-19 CNS)
88.9 µM: TGI (HOP-18 NSCLC)
71.9 µM: TGI (786-0 renal)
49.4 µM: TGI (OVCAR-3 ovarian)
58.4 µM: TGI (NCI-H460 lung)
57.6 µM: TGI (UACC-62 melanoma)

C#Cc1c(C)c(/C=C/C(C)=C/C(=O)OC)n(C)c1C
79.4 µM: TGI (HL-60(TB) leukemia)
> 100 µM: TGI (M14 melanoma) | TGI (RPMI-8226 leukemia) | TGI (OVCAR-8 ovarian) | TGI (CAKI-1 renal) | TGI (OVCAR-4 ovarian) | TGI (SW-620 colon) | TGI (NCI-H226 lung) | TGI (M19-MEL melanoma) | TGI (ACHN renal) | TGI (KM20L2 colon) | TGI (K-562 leukemia) | TGI (U251 CNS) | TGI (OVCAR-3 ovarian) | TGI (IGROV1 ovarian) | TGI (DLD-1 colon) | TGI (SF-295 CNS) | TGI (SN12C renal) | TGI (UO-31 renal) | TGI (A549 NSCLC) | TGI (SF-539 CNS) | TGI (COLO 205 colon) | TGI (786-0 renal) | TGI (KM12 colon) | TGI (HCT-116 colon) | TGI (A498 renal) | TGI (HOP-62 NSCLC) | TGI (SF-268 CNS) | TGI (HT29 colon) | TGI (NCI-H522 lung) | TGI (UACC-257 melanoma) | TGI (DMS 114 small cell lung) | TGI (NCI-H23 lung) | TGI (HCT-15 colon) | TGI (MOLT-4 leukemia) | TGI (DMS 273 small cell lung) | TGI (SK-OV-3 ovarian) | TGI (HCC-2998 colon) | TGI (HOP-18 NSCLC) | TGI (SNB-19 CNS) | TGI (UACC-62 melanoma) | TGI (CCRF-CEM leukemia) | TGI (LOX IMVI melanoma) | TGI (XF 498 CNS) | TGI (TK-10 renal) | TGI (OVCAR-5 ovarian) | TGI (MALME-3M melanoma) | TGI (LXFL 529 NSCLC) | TGI (SNB-78 CNS) | TGI (EKVX NSCLC)
85.1 µM: TGI (HOP-92 NSCLC)
